In ChEMBL document CHEMBL1147969, “Synthesis of some novel heterocyclic compounds derived from diflunisal hydrazide as potential anti-infective and anti-inflammatory agents” (2007) one finds Activity data, which are given here for one molecule.

Active and inactive are the calls of the source. No cut-off for these calls is given here.

For the assay, the system named is Vaccinia virus. Put plainly: Antiviral activity against Vaccinia virus-induced cytopathogenicity at 16 ug/mL. The format is functional, organism-based. Conditions: Orthopoxvirus vaccinia. On the technique in general: Cytopathic effects are the visible damage that an infection or toxin causes in cultured cells.

In the case of `Cc1ccc(-n2c(-c3cc(-c4ccc(F)cc4F)ccc3O)n[nH]c2=S)cc1`, the result was Active.
